Test results from US20030176494A1, “Novel coumarin and chromene compounds and methods of preparation and use thereof for treating or preventing viral infections” (priority 2001, published 2003).
In brackets after ≈: the same amount, converted by molar mass. Where two headings read alike, the source gives them in different places.

Assays:
[1] = system: pyridinone-resistant A17 virus; details: cited from earlier work
[2] = system: human T-lymphoblastic cells (CEM-SS); details: cited from earlier work
[3] = system: AZT-resistant G-9106 strain of HIV; details: cited from earlier work
HIV-1 = details: cited from earlier work
Rhinovirus = Rhinovirus antiviral assay (CPE inhibition, neutral red uptake, virus yield); assay type: cell-based; details: Enterovirus
HBV = HBV replication in cultures of 2.2.15 cells (HBV DNA blot hybridization); assay type: cell-based; details: Hepatitis B virus; read-out: Antiviral Activities (EC50) HBV
Experimental: Test compounds are then added daily for a continuous 9 day period. Culture medium (changed daily during the treatment period) is collected and stored for analysis of extracellular (virion) HBV DNA after 0, 3, 6, and 9 days of treatment. Treated cells are lysed 24 hours following day 9 of treatment for the analysis of intracellular HBV genomic forms. HBV DVA is then analyzed in a quantitative and qualitative manner for overall levels of HBV DNA (both extracellular and intracellular DNA) and the relative rate of HBV replication (intracellular DNA).
Both intracellular and extracellular HBV DNA are analyzed in order to (i) allow for verification of compound efficacy and (ii) provide possible data on the target site in the HBV replication pathway for the compound from examination of the pattern of viral replicative forms. The culture medium is changed daily during the treatment period to (i) prevent the buildup of potentially toxic metabolites derived from test compounds and (ii) provide an analysis of HBV virion production during discrete 24-hour intervals which enables a quantitative comparison of any effect on virion production.
The analysis of HBV DNA is performed using blot hybridization techniques (Southern and slot blot) and [^32P]-labeled HBV-specific probes. HBV DNA levels are measured by comparison to known amounts of HBV DNA standards applied to every nitrocellulose membrane (gel or slot blot). An AMBIS beta scanner, which measures the radioactive decay of the hybridized probes directly from the nitrocellulose membranes, is used for the quantitative analysis. Standard curves, generated by multiple analyses, are used to correlate CPM measurements made by the beta scanner with relative levels of target HBV DNA. The levels of HBV virion DNA released into the culture medium are analyzed by a slot blot hybridization procedure. HBV DNA levels are then compared to those at Day 0 to determine the effect of drug treatment.
The levels of RI and episomal monomers are used as an indicator of the relative level of HBV replication. Integrated HBV DNA is used to normalize the relative amounts of DNA in each lane because the levels of this class of HBV DNA would be expected to remain constant on a per cell basis. […] Inhibition of HBV DNA replication is indicated by the loss of RI without changes in the level of integrated HBV DNA.

[4] = system: Respiratory Syncytial Virus; experiment: Respiratory syncytial virus antiviral assay (CPE inhibition, neutral red uptake); assay type: cell-based, Respiratory syncytial virus strain Utah 89; details: human respiratory syncytial virus
Measles Virus = experiment: Measles virus antiviral assay (CPE inhibition, neutral red uptake, virus yield); assay type: cell-based, Measles virus strain CC; details: Measles morbillivirus
EBV = EBV assay: superinfection of Raji or Daudi cells with P3HR-1, immunofluorescence for EA and VCA; assay type: cell-based, Epstein-Barr Virus (P3HR-1); details: human gammaherpesvirus 4; read-out: Antiviral Activities (EC50) EBV
From the text: There are two prototypes of infectious EBV. One is exemplified by the virus derived from supernatant fluids of the P3HR-1cell line. This cell line produces nontransforming virus that causes the production of early antigen (EA) after primary infection or superinfection of B cell lines. The other prototype is exemplified by the B-95-8 virus. This virus immortalized cord blood lymphocytes and induced tumors in marmosets. […] The virus used in our assays is P3HR-1.
Ramos is an exceptional B cell line derived from Burkitt's lymphoma tumor but containing no detectable EBV genome copies and is EBNA negative. Ramos/AW was obtained by in vitro infection of Ramos with the P3HR-1 virus and contains one resident EBV genome copy/cell. Raji is a Burkitt's lymphoma cell line containing 60 EBV genomes/cell, and will be the primary cell used for screening antiviral activity against EBV EA expression. Daudi is a low level producer that contains 152 EBV genome copies/cell. It spontaneously expresses EBV EA in 0.25%-0.5% of the cells. It will be used in follow-up studies to confirm activity. These cell lines respond to superinfection by EBV by expressing EA(D), EA(R), and VCA. All cell lines are maintained in RPMI-1640 medium supplemented by 10% FCS, L-glutamine and 100 μg/mL gentamicin. The cultures are fed twice weekly and the cell concentration adjusted to 3×10^5/mL. The cells are kept at 37° C. in a humidified atmosphere with 5% CO2.
Cells are infected with the P3HR-1 strain of EBV and the drugs to be tested are added after adsorption (45 minutes at 37° C.) and washing of the cell cultures. The cultures are incubated for two days in complete medium to allow viral gene expression. Following the 48 hr incubation period, the number of cells of each sample are counted and smears made. Monoclonal antibodies to the different EA components and VCA are then added to the cells incubated and washed. This is followed by a fluorescein conjugated rabbit anti-mouse Ig antibody; and the number of fluorescence positive cells in the smears are counted. The total number of cells in the cultures positive for EA or VCA are then calculated and compared.

HIV = experiment: Anti-HIV evaluation by MTT-tetrazolium method (inhibition of CPE in MT-2 / CEM-SS cells); assay type: cell-based; details: Human immunodeficiency virus 1, CEM-SS; read-out: Antiviral Activities (EC50) HIV
Experimental: This example illustrates the anti-HIV activity of various coumarin and chromene compounds which were evaluated using the published MTT-tetrazolium methods^8. Retroviral agents AZT and DDC were used as controls for comparison purposes.
The cells used for screening were the MT-2 and the human T4-lymphoblastoid cell line, CEM-SS, and were grown in RPMI 1640 medium supplemented with 10% fetal (v/v) heat-inactivated fetal calf serum and also containing 100 units/mL penicillin, 100 μg/mL streptomycin, 25 mM HEPES and 20 μg/mL gentamicin. The medium used for dilution of drugs and maintenance of cultures during the assay was the same as above. The HTLV-IIIB and HTLV-RF were propagated in CEM-SS. The appropriate amounts of the pure compounds for anti-HIV evaluations were dissolved in DMSO, then diluted in medium to the desired initial concentration. The concentrations (M medium) employed were […]; 0.001 μM; 0.0032 μM; 0.01 μM; 0.032 μM; 0.1 μM; 0.32 μM; 1 μM; 3.2 μM; 10 μM; 32 μM; and 100 μM. Each dilution was added to plates in the amount of 100 μL/well. Drugs were tested in triplicate wells per dilution with infected cells while in duplicate wells per dilution with uninfected cells for evaluation of cytotoxicity. On day 6 (CEM-SS cells) and day 7 (MT-2 cells) post-infection, the viable cells were measured with a tetrazolium salt, MTT (5 mg/mL), added to the test plates. A solution of 20% SDS in 0.001 N HCl is used to dissolve the MTT formazan produced. The optical density value was a function of the amount of formazan produced which was proportional to the number of viable cells. The percent inhibition of CPE per drug concentration was measured as a test over control and expressed in percent (T/C %).

VZV = VZV plaque reduction assay in human foreskin fibroblast cells; assay type: cell-based, Varicella Zoster Virus (Ellen strain); details: Human alphaherpesvirus 3, Fibroblast; read-out: Antiviral Activities (EC50) VZV
Experimental: [table] Two days prior to use, HFF cells are plated into six-well plates and incubated at 37° C. with 5% CO2 and 90% humidity. On the date of assay, the drug is made up at twice the desired concentration in 2×MEM and then serially diluted 1:5 in 2×MEM using six concentrations of drug. […] The media is then aspirated from the wells and 0.2 mL of virus is added to each well in duplicate with 0.2 mL of media being added to drug toxicity wells. The plates are then incubated for one hour with shaking every fifteen minutes. […] The drug agarose mixture is applied to each well in 2 mL volume and the plates then incubated for three days, after which the cells were stained with a 1.5% solution of neutral red. At the end of 4-6 hr incubation period, the stain is aspirated, and plaques counted using a stereomicroscope at 10× magnification. The procedure is essentially the same as for the HSV plaque assay described above with two exceptions: 1. After addition of the drug, the plates are incubated for ten days. 2.

[5] = readout not stated, read-out: Antiviral Activities (EC50) Rhinovirus
[6] = readout not stated, read-out: Antiviral Activities (EC50) Respiratory Syncitial
[7] = CPE inhibition, read-out: Antiviral Activities (EC50) Measles (CPE)
[8] = neutral red (NR) dye uptake, read-out: Antiviral Activities (EC50) Measles (NR)
[9] = CPE inhibition, read-out: Antiviral Activities (EC50) Respiratory Syncitial (CPE)
[10] = neutral red (NR) dye uptake, read-out: Antiviral Activities (EC50) Respiratory Syncitial (NR)
[11] = CPE inhibition, read-out: Antiviral Activities (EC50) Rhinovirus (CPE)
[12] = neutral red (NR) dye uptake, read-out: Antiviral Activities (EC50) Rhinovirus (NR)

| SMILES | melting point [°C] | activity against pyridinone-resistant A17 virus [1] | IC50 [2] [µM] | activity against AZT-resistant G-9106 strain of HIV [3] | protection against the cytopathic effects of HIV-1 (HIV-1; down to a concentration of 0.1 μM) [%] | EC50 (HIV-1; human T-lymphoblastic cells (CEM-SS), read-out: EC50, HIV-1 replication in CEM-SS) [µM] | EC50 (Rhinovirus; [5]) [µg/mL] | EC50 (HBV) [µg/mL] | EC50 [4, 6] [µg/mL] | EC50 (Measles Virus; readout not stated, read-out: Antiviral Activities (EC50) Measles) [µg/mL] | EC50 (EBV) [µg/mL] | EC50 (HIV) [µg/mL] | EC50 (VZV) [µg/mL] | EC50 (Measles Virus; [7]) [µg/mL] | EC50 (Measles Virus; [8]) [µg/mL] | EC50 [4, 9] [µg/mL] | EC50 [4, 10] [µg/mL] | EC50 (Rhinovirus; [11]) [µg/mL] | EC50 (Rhinovirus; [12]) [µg/mL] | EC50 (Rhinovirus; read-out: Antiviral Activities (EC50) Rhinovirus (virus yield)) [µg/mL] |
| --- | --- | --- | --- | --- | --- | --- | --- | --- | --- | --- | --- | --- | --- | --- | --- | --- | --- | --- | --- | --- |
| CCCc1cc(=O)oc2cc(OC(=O)C(C)(C)C)cc(O)c12 [Compound 7b, 5-Hydroxy-7-pivaloyloxy-4-propylcoumarin] | 158 to 160 |  |  |  |  |  |  |  |  |  |  |  |  |  |  |  |  |  |  |  |
| CCCc1cc(=O)oc2c3c(c4c(c12)OC(C)(C)C=C4)O[C@H](C)[C@@H](C)[C@@H]3O [(+)-calanolide A, (+)-Calanolide A] |  | active | 20 | active | 100 | 0.1 |  |  |  |  |  |  |  |  |  |  |  |  |  |  |
| CCCc1cc(=O)oc2cc(OS(=O)(=O)c3ccc(C)cc3)c3c(c12)OC(C)(C)C=C3 |  |  |  |  |  |  | > 100 | > 10 | > 100 | > 100 | 0.2 (≈ 0.454 µM) | 1.6 (≈ 3.63 µM) | > 100 |  |  |  |  |  |  |  |
| CCCc1cc(=O)oc2cc(OCC(C)(C)C(=O)OC)c3c(c12)OC(C)(C)C=C3 |  |  |  |  |  |  | 25 (≈ 62.4 µM) | > 4 | > 100 |  | 0.08 (≈ 0.2 µM) | 2 (≈ 4.99 µM) | > 20 | 40 (≈ 99.9 µM) | 30 (≈ 74.9 µM) |  |  |  |  |  |
| CCCc1cc(=O)oc2c(C(=O)CC)c(O)c(C(=O)CC)c(O)c12 |  |  |  |  |  |  | 0.39 (≈ 1.17 µM) | > 3 |  |  | 1.2 (≈ 3.61 µM) | > 2 | > 20 | > 100 | > 100 | 20 (≈ 60.2 µM) | 10 (≈ 30.1 µM) |  |  |  |
| CCCc1cc(=O)oc2c3c(c4c(c12)OC(C)(C)C(O)C4O)O[C@H](C)[C@@H](C)[C@@H]3O (some centres unmarked) |  |  |  |  |  |  |  | > 4 |  |  | 9.5 (≈ 23.5 µM) | > 8 | > 20 | 10 (≈ 24.7 µM) | 10 (≈ 24.7 µM) | > 100 | > 100 | 10 (≈ 24.7 µM) | 10 (≈ 24.7 µM) |  |
| CCCc1cc(=O)oc2c3c(c4c(c12)OC(C)(C)[C@H](O)[C@H]4O)O[C@H](C)[C@@H](C)[C@@H]3O |  |  |  |  |  |  |  | > 4 |  |  | > 50 | > 2.5 | > 100 | 10 (≈ 24.7 µM) | 100 (≈ 247 µM) | > 100 | 100 (≈ 247 µM) | 20 (≈ 49.4 µM) | 50 (≈ 124 µM) |  |
| CCCc1cc(=O)oc2cc(OS(=O)(=O)c3ccc(C)cc3)cc(O)c12 |  |  |  |  |  |  |  | 2.1 (≈ 5.61 µM) |  |  | 2.1 (≈ 5.61 µM) | > 2 | > 100 | 1 (≈ 2.67 µM) | 1 (≈ 2.67 µM) | 3 (≈ 8.01 µM) | 2 (≈ 5.34 µM) | 1 (≈ 2.67 µM) | 2 (≈ 5.34 µM) |  |
| CCCc1cc(=O)oc2c3c(c4c(c12)OC(C)(C)[C@H](O)[C@H]4OC(=O)c1cccc(Cl)c1)O[C@H](C)[C@@H](C)C3=O |  |  |  |  |  |  |  | 2.6 (≈ 4.81 µM) |  |  | 29.2 (≈ 54 µM) | > 3 | 3.5 (≈ 6.47 µM) | 3 (≈ 5.55 µM) | 0.4 (≈ 0.739 µM) | 3 (≈ 5.55 µM) | 4 (≈ 7.39 µM) | 0.1 (≈ 0.185 µM) | 0.1 (≈ 0.185 µM) | 4 (≈ 7.39 µM) |
